Activity calls are given as the source filed them. The calls are words filed in the database; no cut-off is given here.

This test concerns Osteoblast. Put plainly: Induction of mineralization in Sprague-Dawley rat calvaria derived primary osteoblast after 7 days by Alizarin Red S staining. Format: functional, cell-based.
Turning to `COc1cc(O)c2c(=O)c(-c3ccc(O)cc3O)coc2c1`, the outcome was Active. For `COc1ccc2c(=O)c(-c3ccc(O)cc3)coc2c1`, the result was Active.

Consider `COc1ccc(-c2coc3cc(O)ccc3c2=O)cc1OC`, for which the result was Active. In the case of `COc1ccc(-c2coc3cc(O)ccc3c2=O)cc1`, the outcome was Active.

(Values after ChEMBL document CHEMBL1143340, “Osteogenic activity of constituents from Butea monosperma” (Bioorg Med Chem Lett, 2009).)
